Results: patent publication US20250250299A1, “MACROCYCLIC IMMUNOMODULATORS” (Bristol-Myers Squibb Company, priority 2022, published 2025)
Where a SMILES comes first, the peptide text is derived from it. Bridges are numbered along the chain shown (N, C = ends). [ ]: non-standard residue; d: D form. The star is where a group is joined. X1 = O=C(O)CCCCCCCCCCCCCCCCC(=O)N[C@@H](CCC(=O)NCCOCCOCCOCCOCCOCCOCCOCCOCCOCCOCCOCCn1cc(C*)nn1)C(=O)O; Bip = N[C@@H](Cc1ccc(-c2ccccc2)cc1)C(=O)O; Phe(3-Me) = Cc1cccc(C[C@H](N)C(=O)O)c1; Cha = N[C@@H](CC1CCCCC1)C(=O)O; Carboxymethyl = O=C(O)C*; Orn = NCCC[C@H](N)C(=O)O; Dab = NCC[C@H](N)C(=O)O; Dap = NC[C@H](N)C(=O)O

Biological target: T1, human PD-1 (Jurkat-PD-1 cells; binding of PE-labeled human PD-L1-Ig) (Homo sapiens, UniProt Q15116)
T1 construct: expressed in transfected cells; host or cells: Jurkat (Jurkat-PD-1 / Jurkat-hPD-1)
Assay: Jurkat-PD-1 Cell Binding High-Content Screening Assay
Conditions: Jurkat cell line over-expressing human PD-1; compound 2 h at 37° C., then PE-labeled PD-L1-Ig 20 nM final, 1 hour; read-out: Jurkat hPD1 PDL1 IC50
Description: The ability of the compounds of formula (I) to bind to PD-1 was investigated using a Jurkat-PD-1 Cell Binding High-Content Screening Assay.
Phycoerythrin (PE) was covalently linked to the Ig epitope tag of human PD-L1-Ig and fluorescently-labeled PD-L1-Ig was used for binding studies with a Jurkat cell line over-expressing human PD-1 (Jurkat-PD-1). Briefly, 8×10^3 Jurkat-hPD-1 cells were seeded into 384 well plates in 20 μl of DIVEM supplemented with 10% fetal calf serum. 100 nl of compound was added to cells followed by incubation at 37° C. for 2 h. Then, 5 μl of PE-labeled PD-L1-Ig (20 nM final), diluted in DiVEM supplemented with 10 fetal calf serum. After 1 hour incubation, cells were fixed with […] in dPBS containing 10 µg/mL Hoechst 33342 and then washed 3× in 100 μl dPB S. Data was collected and processed using a Cell Insight NXT High Content Imager and associated software.

T1 sequence (Q15116 25-288): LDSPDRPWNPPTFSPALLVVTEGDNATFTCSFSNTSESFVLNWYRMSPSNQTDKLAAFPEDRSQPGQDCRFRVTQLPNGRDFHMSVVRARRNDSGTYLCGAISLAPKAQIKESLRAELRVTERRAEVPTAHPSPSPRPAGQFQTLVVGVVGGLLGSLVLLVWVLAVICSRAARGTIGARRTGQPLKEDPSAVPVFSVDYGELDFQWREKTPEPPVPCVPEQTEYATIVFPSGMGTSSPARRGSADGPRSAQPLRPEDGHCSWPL

Row | IC50 | SMILES
1 | 510 nM | Cc1cccc(C[C@@H]2NC(=O)[C@H](CC(=O)O)NC(=O)[C@H](Cc3ccc(OCc4cn(CCOCCOCCOCCOCCOCCOCCOCCOCCOCCOCCOCCNC(=O)CC[C@H](NC(=O)CCCCCCCCCCCCCCCCC(=O)O)C(=O)O)nn4)cc3)NC(=O)[C@H](CCN)NC(=O)CSC[C@@H](C(=O)N[C@@H](CCN)C(N)=O)NC(=O)[C@H](CCC(=O)O)NC(=O)[C@H](C(C)C)NC(=O)[C@H](CC3CCCCC3)NC(=O)[C@H](CCN)NC(=O)[C@@H](CC(C)C)NC(=O)[C@H](CCCN)NC(=O)[C@H](Cc3ccc(OCC(=O)O)cc3)NC(=O)[C@H](Cc3ccc(-c4ccccc4)cc3)NC(=O)[C@H](Cc3ccc(OCC(=O)O)cc3)NC2=O)c1 [Compound 1007] ({CH2CO}-[Dab]Y(X1)D[Phe(3-Me)]Y(Carboxymethyl)[Bip]Y(Carboxymethyl)[Orn][dL][Dab][Cha]VEC[Dab]-NH2; thioether N-14)
2 | 710 nM | Cc1cccc(C[C@@H]2NC(=O)[C@H](CC(=O)O)NC(=O)[C@H](Cc3ccc(OCc4cn(CCOCCOCCOCCOCCOCCOCCOCCOCCOCCOCCOCCNC(=O)CC[C@H](NC(=O)CCCCCCCCCCCCCCCCC(=O)O)C(=O)O)nn4)cc3)NC(=O)[C@H](CN)NC(=O)CSC[C@@H](C(=O)N[C@@H](CCN)C(N)=O)NC(=O)[C@H](CCC(=O)O)NC(=O)[C@H](C(C)C)NC(=O)[C@H](CC3CCCCC3)NC(=O)[C@H](CCN)NC(=O)[C@@H](CC(C)C)NC(=O)[C@H](CCCN)NC(=O)[C@H](Cc3ccc(OCC(=O)O)cc3)NC(=O)[C@H](Cc3ccc(-c4ccccc4)cc3)NC(=O)[C@H](Cc3ccc(OCC(=O)O)cc3)NC2=O)c1 [Compound 1008] ({CH2CO}-[Dap]Y(X1)D[Phe(3-Me)]Y(Carboxymethyl)[Bip]Y(Carboxymethyl)[Orn][dL][Dab][Cha]VEC[Dab]-NH2; thioether N-14)
3 | 720 nM | Cc1cccc(C[C@@H]2NC(=O)[C@H](CC(=O)O)NC(=O)[C@H](Cc3ccc(OCc4cn(CCOCCOCCOCCOCCOCCOCCOCCOCCOCCOCCOCCNC(=O)CC[C@H](NC(=O)CCCCCCCCCCCCCCCCC(=O)O)C(=O)O)nn4)cc3)NC(=O)[C@H](CCCNC(=N)N)NC(=O)CSC[C@@H](C(=O)N[C@@H](CCN)C(N)=O)NC(=O)[C@H](CCC(=O)O)NC(=O)[C@H](C(C)C)NC(=O)[C@H](CC3CCCCC3)NC(=O)[C@H](CCN)NC(=O)[C@@H](CC(C)C)NC(=O)[C@H](CCCN)NC(=O)[C@H](Cc3ccc(OCC(=O)O)cc3)NC(=O)[C@H](Cc3ccc(-c4ccccc4)cc3)NC(=O)[C@H](Cc3ccc(OCC(=O)O)cc3)NC2=O)c1 [Compound 1009] ({CH2CO}-RY(X1)D[Phe(3-Me)]Y(Carboxymethyl)[Bip]Y(Carboxymethyl)[Orn][dL][Dab][Cha]VEC[Dab]-NH2; thioether N-14)
4 | 630 nM | Cc1cccc(C[C@@H]2NC(=O)[C@H](CC(=O)O)NC(=O)[C@H](Cc3ccc(OCc4cn(CCOCCOCCOCCOCCOCCOCCOCCOCCOCCOCCOCCNC(=O)CC[C@H](NC(=O)CCCCCCCCCCCCCCCCC(=O)O)C(=O)O)nn4)cc3)NC(=O)[C@H](Cc3c[nH]cn3)NC(=O)CSC[C@@H](C(=O)N[C@@H](CCN)C(N)=O)NC(=O)[C@H](CCC(=O)O)NC(=O)[C@H](C(C)C)NC(=O)[C@H](CC3CCCCC3)NC(=O)[C@H](CCN)NC(=O)[C@@H](CC(C)C)NC(=O)[C@H](CCCN)NC(=O)[C@H](Cc3ccc(OCC(=O)O)cc3)NC(=O)[C@H](Cc3ccc(-c4ccccc4)cc3)NC(=O)[C@H](Cc3ccc(OCC(=O)O)cc3)NC2=O)c1 [Compound 1010] ({CH2CO}-HY(X1)D[Phe(3-Me)]Y(Carboxymethyl)[Bip]Y(Carboxymethyl)[Orn][dL][Dab][Cha]VEC[Dab]-NH2; thioether N-14)
5 | 73 nM | Cc1cccc(C[C@@H]2NC(=O)[C@H](CC(=O)O)NC(=O)[C@H](Cc3ccc(OCC(=O)O)cc3)NC(=O)[C@H](CCCNC(=N)N)NC(=O)CSC[C@@H](C(=O)N[C@@H](CCN)C(N)=O)NC(=O)[C@H](Cc3ccc(OCc4cn(CCOCCOCCOCCOCCOCCOCCOCCOCCOCCOCCOCCNC(=O)CC[C@H](NC(=O)CCCCCCCCCCCCCCCCC(=O)O)C(=O)O)nn4)cc3)NC(=O)[C@H](C(C)C)NC(=O)[C@H](CC3CCCCC3)NC(=O)[C@H](CCN)NC(=O)[C@@H](CC(C)C)NC(=O)[C@H](CCCN)NC(=O)[C@H](Cc3ccc(OCC(=O)O)cc3)NC(=O)[C@H](Cc3ccc(-c4ccccc4)cc3)NC(=O)[C@H](Cc3ccc(OCC(=O)O)cc3)NC2=O)c1 [Compound 1014] ({CH2CO}-RY(Carboxymethyl)D[Phe(3-Me)]Y(Carboxymethyl)[Bip]Y(Carboxymethyl)[Orn][dL][Dab][Cha]VY(X1)C[Dab]-NH2; thioether N-14)

Continued, compound first:

Row | SMILES | IC50
6 | Cc1cccc(C[C@@H]2NC(=O)[C@H](CC(=O)O)NC(=O)[C@H](Cc3ccc(OCC(=O)O)cc3)NC(=O)[C@H](Cc3c[nH]cn3)NC(=O)CSC[C@@H](C(=O)N[C@@H](CCN)C(N)=O)NC(=O)[C@H](CCC(=O)O)NC(=O)[C@H](C(C)C)NC(=O)[C@H](CC3CCCCC3)NC(=O)[C@H](CCN)NC(=O)[C@@H](CC(C)C)NC(=O)[C@H](CCCN)NC(=O)[C@H](Cc3ccc(OCC(=O)O)cc3)NC(=O)[C@H](Cc3ccc(-c4ccccc4)cc3)NC(=O)[C@H](Cc3ccc(OCc4cn(CCOCCOCCOCCOCCOCCOCCOCCOCCOCCOCCOCCNC(=O)CC[C@H](NC(=O)CCCCCCCCCCCCCCCCC(=O)O)C(=O)O)nn4)cc3)NC2=O)c1 [Compound 1006] ({CH2CO}-HY(Carboxymethyl)D[Phe(3-Me)]Y(X1)[Bip]Y(Carboxymethyl)[Orn][dL][Dab][Cha]VEC[Dab]-NH2; thioether N-14) | 55 nM
7 | Cc1cccc(C[C@@H]2NC(=O)[C@H](CC(=O)O)NC(=O)[C@H](Cc3ccc(OCC(=O)O)cc3)NC(=O)[C@H](Cc3ccc(OCc4cn(CCOCCOCCOCCOCCOCCOCCOCCOCCOCCOCCOCCNC(=O)CC[C@H](NC(=O)CCCCCCCCCCCCCCCCC(=O)O)C(=O)O)nn4)cc3)NC(=O)CSC[C@@H](C(=O)N[C@@H](CCN)C(N)=O)NC(=O)[C@H](CCC(=O)O)NC(=O)[C@H](C(C)C)NC(=O)[C@H](CC3CCCCC3)NC(=O)[C@H](CCN)NC(=O)[C@@H](CC(C)C)NC(=O)[C@H](CCCN)NC(=O)[C@H](Cc3ccc(OCC(=O)O)cc3)NC(=O)[C@H](Cc3ccc(-c4ccccc4)cc3)NC(=O)[C@H](Cc3ccc(OCC(=O)O)cc3)NC2=O)c1 [Compound 1011] ({CH2CO}-Y(X1)Y(Carboxymethyl)D[Phe(3-Me)]Y(Carboxymethyl)[Bip]Y(Carboxymethyl)[Orn][dL][Dab][Cha]VEC[Dab]-NH2; thioether N-14) | 340 nM
8 | Cc1cccc(C[C@@H]2NC(=O)[C@H](CC(=O)O)NC(=O)[C@H](Cc3ccc(OCC(=O)O)cc3)NC(=O)[C@H](CCN)NC(=O)CSC[C@@H](C(=O)N[C@@H](CCN)C(N)=O)NC(=O)[C@H](Cc3ccc(OCc4cn(CCOCCOCCOCCOCCOCCOCCOCCOCCOCCOCCOCCNC(=O)CC[C@H](NC(=O)CCCCCCCCCCCCCCCCC(=O)O)C(=O)O)nn4)cc3)NC(=O)[C@H](C(C)C)NC(=O)[C@H](CC3CCCCC3)NC(=O)[C@H](CCN)NC(=O)[C@@H](CC(C)C)NC(=O)[C@H](CCCN)NC(=O)[C@H](Cc3ccc(OCC(=O)O)cc3)NC(=O)[C@H](Cc3ccc(-c4ccccc4)cc3)NC(=O)[C@H](Cc3ccc(OCC(=O)O)cc3)NC2=O)c1 [Compound 1012] ({CH2CO}-[Dab]Y(Carboxymethyl)D[Phe(3-Me)]Y(Carboxymethyl)[Bip]Y(Carboxymethyl)[Orn][dL][Dab][Cha]VY(X1)C[Dab]-NH2; thioether N-14) | 380 nM
9 | Cc1cccc(C[C@@H]2NC(=O)[C@H](CC(=O)O)NC(=O)[C@H](Cc3ccc(OCC(=O)O)cc3)NC(=O)[C@H](CN)NC(=O)CSC[C@@H](C(=O)N[C@@H](CCN)C(N)=O)NC(=O)[C@H](Cc3ccc(OCc4cn(CCOCCOCCOCCOCCOCCOCCOCCOCCOCCOCCOCCNC(=O)CC[C@H](NC(=O)CCCCCCCCCCCCCCCCC(=O)O)C(=O)O)nn4)cc3)NC(=O)[C@H](C(C)C)NC(=O)[C@H](CC3CCCCC3)NC(=O)[C@H](CCN)NC(=O)[C@@H](CC(C)C)NC(=O)[C@H](CCCN)NC(=O)[C@H](Cc3ccc(OCC(=O)O)cc3)NC(=O)[C@H](Cc3ccc(-c4ccccc4)cc3)NC(=O)[C@H](Cc3ccc(OCC(=O)O)cc3)NC2=O)c1 [Compound 1013] ({CH2CO}-[Dap]Y(Carboxymethyl)D[Phe(3-Me)]Y(Carboxymethyl)[Bip]Y(Carboxymethyl)[Orn][dL][Dab][Cha]VY(X1)C[Dab]-NH2; thioether N-14) | 240 nM
10 | Cc1cccc(C[C@@H]2NC(=O)[C@H](CC(=O)O)NC(=O)[C@H](Cc3ccc(OCC(=O)O)cc3)NC(=O)[C@H](Cc3c[nH]cn3)NC(=O)CSC[C@@H](C(=O)N[C@@H](CCN)C(N)=O)NC(=O)[C@H](Cc3ccc(OCc4cn(CCOCCOCCOCCOCCOCCOCCOCCOCCOCCOCCOCCNC(=O)CC[C@H](NC(=O)CCCCCCCCCCCCCCCCC(=O)O)C(=O)O)nn4)cc3)NC(=O)[C@H](C(C)C)NC(=O)[C@H](CC3CCCCC3)NC(=O)[C@H](CCN)NC(=O)[C@@H](CC(C)C)NC(=O)[C@H](CCCN)NC(=O)[C@H](Cc3ccc(OCC(=O)O)cc3)NC(=O)[C@H](Cc3ccc(-c4ccccc4)cc3)NC(=O)[C@H](Cc3ccc(OCC(=O)O)cc3)NC2=O)c1 [Compound 1015] ({CH2CO}-HY(Carboxymethyl)D[Phe(3-Me)]Y(Carboxymethyl)[Bip]Y(Carboxymethyl)[Orn][dL][Dab][Cha]VY(X1)C[Dab]-NH2; thioether N-14) | 100 nM
